Source: patent publication US4704462A, “Substituted 2,3,3a,6-tetrahydro-6-oxobenzofuran derivative useful as PAF antagonist” (Merck & Co., Inc., priority 1985, dated 1987)

Experiments:
[1] = target: T1, PAF Receptor (Oryctolagus cuniculus, UniProt G1TEI7); experiment: % Inhibition of PAF Receptor (published bioassay, Table I); type: binding
T1 construct: from tissue
Excerpt: See. T. Y. Shen et al., Proc. Nat. Acad. Sci., U.S.A., 82, 672 (1985); and S. B. Hwang et al., Biochem., 22, 4756 (1983).
% Inhibition of PAF Receptor by the Compounds of […]

[2] = test system: man; details: in man, 0.1 μg per site; cited from earlier work

T1 sequence (G1TEI7 1-342): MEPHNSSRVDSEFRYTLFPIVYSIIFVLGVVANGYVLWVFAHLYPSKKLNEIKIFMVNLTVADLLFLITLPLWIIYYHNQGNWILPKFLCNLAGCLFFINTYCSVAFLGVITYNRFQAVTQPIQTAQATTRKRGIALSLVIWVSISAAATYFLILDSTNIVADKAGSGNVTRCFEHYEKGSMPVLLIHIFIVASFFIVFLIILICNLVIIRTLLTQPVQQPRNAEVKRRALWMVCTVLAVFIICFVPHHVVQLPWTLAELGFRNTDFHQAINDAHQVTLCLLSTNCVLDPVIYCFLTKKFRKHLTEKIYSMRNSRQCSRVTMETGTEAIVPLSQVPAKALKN

Compound: CCCC1=C[C@]2(OC)C(=CC1=O)O[C@H](c1ccc(OC)c(OC)c1)[C@@H]2C (single isomer, unassigned)
- inhibition at 1 µM [1]: 31%
- inhibition at 5 µM [1]: 61%

Compound: C=CCC1=C[C@]2(OCC)C(=CC1=O)O[C@H](c1ccc(OC)c(OC)c1)[C@@H]2C [(2S,3S,3aR)-5-allyl-2-(3,4-dimethoxyphenyl)-3a-ethoxy-3-methyl-2,3,3a,6-tetrahydro-6-oxo-benzofuran]
- inhibition at 1 µM [1]: 45%
- inhibition at 5 µM [1]: 73%

Compound: 1-O-hexadecyl/octadecyl-2-O-acetyl-sn-glycero-3-phosphorylcholine [PAF]
- inflammatory response to intradermal PAF [2]: biphasic inflammatory response

Compound: CCCC1=C[C@@]2(OC)C(=CC1=O)O[C@H](c1ccc(OC)c(OC)c1)[C@@H]2C [(2S,3S,3aS)-2-(3,4-dimethoxyphenyl)-3a-methoxy-3-methyl-5-n-propyl-2,3,3a,6-tetrahydro-6-oxo-benzofuran]
- inhibition at 0.03 µM ([1]; Dose 0.03 μM): 30 to 33%
- inhibition at 0.1 µM ([1]; Dose 0.1 μM): 58 to 59%
- inhibition at 0.3 µM [1]: 73 to 76%
- inhibition at 1 µM [1]: 83 to 89%
- inhibition at 5 µM [1]: 90 to 95%

Compound: C=CCC1=C2OC(c3ccc(OC)c(OC)c3)C(C)C2(OC)C=CC1=O (centres unmarked)
- inhibition at 1 µM [1]: 26%
- inhibition at 5 µM [1]: 57%

Compound: C=CCC1=C[C@@]2(OCC)C(=CC1=O)O[C@H](c1ccc(OC)c(OC)c1)[C@@H]2C [(2S,3S,3aS)-5-allyl-2-(3,4-dimethoxyphenyl)-3a-ethoxy-3-methyl-2,3,3a,6-tetrahydro-6-oxo-benzofuran]
- inhibition at 0.3 µM [1]: 42%
- inhibition at 1 µM [1]: 68%
